Where “and” joins values, the source holds several entries; their conditions need not be identical. Equal entries are not always repeated.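 Tested at 5 concentrations; 48 h exposure; 96-well plates; endpoints linearly interpolated, else capped at highest concentration. At the GI50, growth is halved. TGI marks complete inhibition of growth.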
Experiments:
Test in all cases: NCI anticancer screen, dose series, 48 h
UO-31 renal = test system: UO-31 renal
SK-MEL-28 melanoma = test system: SK-MEL-28 melanoma
SF-268 CNS = test system: SF-268 CNS
786-0 renal = test system: 786-0 renal
U251 CNS = test system: U251 CNS
SNB-78 CNS = test system: SNB-78 CNS
SK-MEL-5 melanoma = test system: SK-MEL-5 melanoma
OVCAR-4 ovarian = test system: OVCAR-4 ovarian
SW-620 colon = test system: SW-620 colon
RXF 393 renal = test system: RXF 393 renal
MOLT-4 leukemia = test system: MOLT-4 leukemia
UACC-257 melanoma = test system: UACC-257 melanoma
SNB-75 CNS = test system: SNB-75 CNS
KM20L2 colon = test system: KM20L2 colon
DMS 273 small cell lung = test system: DMS 273 small cell lung
NCI-H23 lung = test system: NCI-H23 lung
NCI-H460 lung = test system: NCI-H460 lung
CAKI-1 renal = test system: CAKI-1 renal
HOP-62 NSCLC = test system: HOP-62 NSCLC
NCI-H522 lung = test system: NCI-H522 lung
IGROV1 ovarian = test system: IGROV1 ovarian
K-562 leukemia = test system: K-562 leukemia
M19-MEL melanoma = test system: M19-MEL melanoma
OVCAR-5 ovarian = test system: OVCAR-5 ovarian
M14 melanoma = test system: M14 melanoma
OVCAR-8 ovarian = test system: OVCAR-8 ovarian
DMS 114 small cell lung = test system: DMS 114 small cell lung
DLD-1 colon = test system: DLD-1 colon
OVCAR-3 ovarian = test system: OVCAR-3 ovarian
SR leukemia = test system: SR leukemia
SK-OV-3 ovarian = test system: SK-OV-3 ovarian
COLO 205 colon = test system: COLO 205 colon
LXFL 529 NSCLC = test system: LXFL 529 NSCLC
XF 498 CNS = test system: XF 498 CNS
A498 renal = test system: A498 renal
ACHN renal = test system: ACHN renal
HT29 colon = test system: HT29 colon
TK-10 renal = test system: TK-10 renal
HCC-2998 colon = test system: HCC-2998 colon
RXF-631 renal = test system: RXF-631 renal
HL-60(TB) leukemia = test system: HL-60(TB) leukemia
SK-MEL-2 melanoma = test system: SK-MEL-2 melanoma
SN12C renal = test system: SN12C renal
EKVX NSCLC = test system: EKVX NSCLC
UACC-62 melanoma = test system: UACC-62 melanoma
KM12 colon = test system: KM12 colon
SF-539 CNS = test system: SF-539 CNS
CCRF-CEM leukemia = test system: CCRF-CEM leukemia
A549 NSCLC = test system: A549 NSCLC
SF-295 CNS = test system: SF-295 CNS

## COc1ccc(-c2oc3c(OC)c(OC)c(OC)c(O)c3c(=O)c2OC)cc1O
UO-31 renal
  GI50: < 0.01 µM
  TGI: 5.81 µM
SK-MEL-28 melanoma
  TGI: > 100 µM
SF-268 CNS
  GI50: < 0.01 µM
  TGI: 2.82 µM
786-0 renal
  GI50: < 0.01 µM
  TGI: 11.3 µM
U251 CNS
  GI50: < 0.01 µM
  TGI: 0.898 µM and 0.23 µM
SNB-78 CNS
  GI50: < 0.01 µM
  TGI: > 100 µM
SK-MEL-5 melanoma
  GI50: < 0.01 µM
  TGI: 0.995 µM
OVCAR-4 ovarian
  TGI: > 100 µM
SW-620 colon
  GI50: < 0.01 µM
  TGI: > 100 µM
RXF 393 renal
  TGI: 0.504 µM
MOLT-4 leukemia
  TGI: 12.7 µM
UACC-257 melanoma
  GI50: < 0.01 µM
  TGI: > 100 µM
SNB-75 CNS
  GI50: < 0.01 µM
  TGI: < 0.01 µM
KM20L2 colon
  TGI: 26.1 µM
DMS 273 small cell lung
  TGI: 16.3 µM
NCI-H23 lung
  GI50: < 0.01 µM
NCI-H460 lung
  GI50: < 0.01 µM
  TGI: 0.138 µM
CAKI-1 renal
  GI50: < 0.01 µM
  TGI: > 100 µM
HOP-62 NSCLC
  GI50: 0.0478 µM
  TGI: 0.877 µM and 4.75 µM
NCI-H522 lung
  TGI: < 0.01 µM
IGROV1 ovarian
  GI50: 0.0358 µM
  TGI: 52.1 µM
K-562 leukemia
  TGI: 13.5 µM
M19-MEL melanoma
  GI50: < 0.01 µM
  TGI: 31.8 µM
OVCAR-5 ovarian
  TGI: > 100 µM
M14 melanoma
  GI50: < 0.01 µM
OVCAR-8 ovarian
  GI50: < 0.01 µM
  TGI: > 100 µM
DMS 114 small cell lung
  TGI: 0.0784 µM
DLD-1 colon
  GI50: 0.0674 µM
  TGI: > 100 µM
OVCAR-3 ovarian
  GI50: < 0.01 µM
SR leukemia
  GI50: < 0.01 µM
  TGI: 0.112 µM
SK-OV-3 ovarian
  GI50: < 0.01 µM
  TGI: 0.783 µM and 0.419 µM
COLO 205 colon
  TGI: 23.5 µM
LXFL 529 NSCLC
  GI50: < 0.01 µM
  TGI: > 100 µM
XF 498 CNS
  TGI: 0.68 µM
A498 renal
  TGI: 5.93 µM
ACHN renal
  GI50: 0.159 µM
  TGI: > 100 µM
HT29 colon
  TGI: 36.8 µM
TK-10 renal
  TGI: 51 µM
HCC-2998 colon
  TGI: 8.64 µM
RXF-631 renal
  TGI: 35.8 µM
HL-60(TB) leukemia
  TGI: < 0.01 µM
SK-MEL-2 melanoma
  TGI: 0.221 µM
SN12C renal
  GI50: < 0.01 µM
  TGI: > 100 µM
EKVX NSCLC
  GI50: 0.317 µM
  TGI: > 100 µM
UACC-62 melanoma
  GI50: < 0.01 µM
  TGI: 19.8 µM
KM12 colon
  GI50: 0.638 µM
  TGI: 10.3 µM
SF-539 CNS
  TGI: 0.101 µM
CCRF-CEM leukemia
  TGI: 11.4 µM
A549 NSCLC
  GI50: < 0.01 µM
  TGI: 12.3 µM
SF-295 CNS
  TGI: 21.2 µM

Source: PubChem BioAssay (NCI)
